Data on three molecules can be found in patent publication US12653794B2, “Dextromethorphan transdermal delivery device” (SHINKEI THERAPEUTICS, INC., priority 2017, dated 2026).

The structures appear in SMILES notation.

Data set [1] in a line: Transdermal flux test, Franz Diffusion Cell method. Format: in vitro ADME, human. The protocol:
Transdermal flux of Dextromethorphan from the patch was tested using human cadaver epidermis by Franz Diffusion Cell method.
Patch formulations A, B, and C prepared in Example 1 were used for a skin permeation study using the following protocol: • Franz cell assembly—Logan Instruments (6-cell unit) • Each cell has 12 mL volume, 1.5 cm diameter orifice • Receptor medium is a phosphate buffer solution (PBS) pH 7.4 • Cell temperature is maintained at 37° C. • Sampling method: take 1.5 mL for HPLC assay, empty cell, replace with fresh medium • Sampling time points: 4, 8, 12, 24 and 48 hours • Cadaver skin is used and is obtained from New York Fire Fighters Skin Bank. Skin No. MM07116, While, person, skin site: left posterior leg. • Assay method for media: HPLC based.
Formulations D0-D2 were also tested for their in vitro flux characteristics following the same protocol as described in Example 2.

Data set [2] in a line: Transdermal delivery rate without enhancer. The source says: The unpredictability of transdermal administration is notorious. […] Structurally and by calculated Log P, these compounds are very similar, such that this difference could not be anticipated. See, U.S. Provisional Appl. No. 62/568,028, filed Oct. 4, 2017, the content of which is incorporated by reference in its entirety.

For data set [3] the following is noted: human, in vivo; cited from earlier work.

Take `CCCCCCCCCCCCCC(=O)OC(C)C` [IPM, isopropyl myristate]: in data set [1], the “effect on flux of dextromethorphan” value is recorded as “significant enhancement of flux was observed” and the “effect on skin permeation of DXM” value is on record as “significantly enhance the skin permeation of DXM”.

On to `C[C@]12CC[C@H]3[C@@H](CCC4=CC(=O)CC[C@@]43C)[C@@H]1CC[C@@H]2O` [testosterone], for which the “transdermal delivery rate relative to beta estradiol” value in data set [2] is listed as “three orders of magnitude higher”.

`COc1ccc2c(c1)[C@]13CCCC[C@@H]1[C@H](C2)N(C)CC3` [dextromethorphan]: the “adverse reactions reported with the individual component” value in data set [3] is “drowsiness, dizziness, nervousness or restlessness, nausea, vomiting, and stomach pain”.
